We go through 13 compounds from patent US20240092779A1, “USP1 INHIBITORS AND USES THEREOF” (Zentaur Therapeutics USA Inc., priority 2022, published 2024).

Converted amounts (≈) assume the structure as drawn. Bounds are passed on as bounds.

The subject of data set [1] is MDA-MB-436 cells. Nature of the data set: CTG Protocol (MDA-MB-436 GI50), antiproliferative activity. In kind it is cell-based, human. Particulars: Homo sapiens, 168 h; MDA-MB-436 cells (BRCA1 mutation), 7-day incubation, CellTiter-Glo. An outline of the steps: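 BRCA1-mutant MDA-MB-436 cells were seeded at 1000 cells/well in DMEM, left overnight, then exposed to a 9-point, 3-fold compound series for 7 days at 37 °C, 5% CO2. Viability was read by CellTiter-Glo luminescence. % inhibition was plotted against concentration to derive GI50.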

A short description of data set [2]: Liver microsomal stability (HLM). In kind it is in vitro ADME. The note with it: human, liver microsomes, human liver microsomes 0.5 mg/mL, 1 μM compound, NADPH.
A short description of data set [3]: Solubility in FaSSIF (Fasted State Simulated Intestinal Fluid). In kind it is physicochemical. The note with it: kinetic from dmso stock, FaSSIF pH 6.5, 25° C. Put shortly:
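Apparent solubility measured in FaSSIF at pH 6.5 from a 10 mM DMSO stock, shaken at 25° C, 1100 RPM for 2 h and then filtered. Filtrate quantified by LC/MS/MS against a 3 μM standard with internal standard, corrected by dilution factor.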

As for `COc1ncnc(C2CC2)c1-c1ncc2ccc(=O)n(Cc3ccc(-c4nc(C(F)(F)F)cn4C(C)C)cc3)c2c1F` [Compound I-27, 7-(4-cyclopropyl-6-methoxypyrimidin-5-yl)-8-fluoro-1-({4-[1-isopropyl-4-(trifluoromethyl)imidazol-2-yl]phenyl}methyl)-1,6-naphthyridin-2-one], the GI50 (in general, the concentration that inhibits growth by half) in data set [1] was 0.01 to 0.1 µM. Moreover, the microsomal CLint (usually a measure of how fast metabolising enzymes remove a compound, apart from limits set by blood flow) at 1 μM in data set [2] was < 10 µL/min/mg. Besides, the solubility (commonly the dissolved amount per volume that the medium holds) at 2 h in data set [3] was < 10 µM.

`COc1ncnc(C2CC2)c1-c1ncc2ccc(=O)n(Cc3ccc(-c4cccc(C(F)(F)F)n4)cc3)c2n1` [Compound I-36, 2-(4-cyclopropyl-6-methoxypyrimidin-5-yl)-8-({4-[6-(trifluoromethyl)pyridin-2-yl]phenyl}methyl)pyrido[2,3-d]pyrimidin-7-one] registered a GI50 in data set [1] of 0.01 to 0.1 µM. The microsomal CLint at 1 μM in data set [2] is 10 to 50 µL/min/mg. In addition, in data set [3], the solubility at 2 h is < 10 µM.

As for `COc1ncnc(C2CC2)c1-c1nc(C)c2cc(-c3cnn(C)c3)c(=O)n(Cc3ccc(-c4nc(C(F)(F)F)cn4C4CC4)cc3)c2n1` [Compound I-148, 8-({4-[1-Cyclopropyl-4-(Trifluoromethyl)Imidazol-2-Yl]Phenyl}Methyl)-2-(4-Cyclopropyl-6-Methoxypyrimidin-5-Yl)-4-Methyl-6-(1-Methylpyrazol-4-Yl)Pyrido[2,3-d]Pyrimidin-7-One], the GI50 in data set [1] was < 0.01 µM. Also, the microsomal CLint at 1 μM in data set [2] was < 10 µL/min/mg. The solubility at 2 h in data set [3] was ≥ 100 µM.

In data set [1], `COc1ncnc(C2CC2)c1-c1ncc2cc(-c3cn(C)nn3)c(=O)n(Cc3ccc(-c4nc(C(F)(F)F)cn4C4CC4)cc3)c2n1` [Compound I-150] came in with a GI50 of 0.01 to 0.1 µM. For the same compound, in data set [2], the microsomal CLint at 1 μM is < 10 µL/min/mg. This compound also had a solubility at 2 h in data set [3] of 10 to 100 µM (≈ 6.41 to 64.1 µg/mL).

As to `COc1ncnc(C2CC2)c1-c1ncc2cc(-c3cnn(C)n3)c(=O)n(Cc3ccc(-c4nc(C(F)(F)F)cn4C4CC4)cc3)c2n1` [Compound I-151], the GI50 in data set [1] was 0.01 to 0.1 µM. For the same compound, the microsomal CLint at 1 μM in data set [2] was < 10 µL/min/mg. In addition, the solubility at 2 h in data set [3] was 10 to 100 µM (≈ 6.41 to 64.1 µg/mL).

With `COc1cc(Cn2c(=O)ccc3c(C)nc(-c4c(OC)ncnc4C4CC4)nc32)ccc1-c1nc(C(F)(F)F)cn1C1CC1` [Compound I-152, 8-({4-[1-cyclopropyl-4-(trifluoromethyl)imidazo]-2-yl]-3-methoxyphenylmethyl)-2-(4-cyclopropyl-6-methoxypyrimidin-5-yl)-4-methylpyrido[2,3-d]pyrimidin-7-one], the GI50 in data set [1] was < 0.01 µM. The microsomal CLint at 1 μM in data set [2] is < 10 µL/min/mg. The solubility at 2 h in data set [3] is ≥ 100 µM.

As to `COc1ncnc(C2CC2)c1-c1ncc2cc(-c3ncn(C)n3)c(=O)n(Cc3ccc(-c4nc(C(F)(F)F)cn4C4CC4)cc3)c2n1` [Compound I-153, 8-({4-[1-cyclopropyl-4-(trifluoromethyl)imidazo]-2-yl]phenylmethyl)-2-(4-cyclopropyl-6-methoxypyrimidin-5-yl)-6-(1-methyl-1,2,4-triazol-3-yl)pyrido[2,3-d]pyrimidin-7-one], in data set [1], the GI50 lay in the range of 0.01 to 0.1 µM. In addition, in data set [2], the microsomal CLint at 1 μM was < 10 µL/min/mg. The solubility at 2 h in data set [3] was ≥ 100 µM.

With `COc1ncnc(C2CC2)c1-c1ncc2cc(-c3c(C)noc3C)c(=O)n(Cc3ccc(-c4nc(C(F)(F)F)cn4C4CC4)cc3)c2n1` [Compound I-155], the GI50 in data set [1] is < 0.01 µM. Further, the microsomal CLint at 1 μM in data set [2] was < 10 µL/min/mg. Also, in data set [3], the solubility at 2 h was 10 to 100 µM (≈ 6.55 to 65.5 µg/mL).

`COc1ncnc(C2CC2)c1-c1ncc2cc(-c3ncnn3C)c(=O)n(Cc3ccc(-c4nc(C(F)(F)F)cn4C4CC4)cc3)c2n1` [Compound I-156] came in with a GI50 in data set [1] of 0.01 to 0.1 µM. For the same compound, the microsomal CLint at 1 μM in data set [2] is < 10 µL/min/mg. For the same compound, the solubility at 2 h in data set [3] was ≥ 100 µM.

Turning to `COc1ncnc(C2CC2)c1-c1nc(C)c2cc(C3CCN(C)CC3)c(=O)n(Cc3ccc(-c4nc(C(F)(F)F)cn4C4CC4)cc3)c2n1` [Compound I-157, 8-({4-[1-Cyclopropyl-4-(Trifluoromethyl)Imidazol-2-Yl]Phenyl}Methyl)-2-(4-Cyclopropyl-6-Methoxypyrimidin-5-Yl)-4-Methyl-6-(1-Methylpiperidin-4-Yl)Pyrido[2,3-d]Pyrimidin-7-One], in data set [1], the GI50 was < 0.01 µM. Moreover, in data set [2], the microsomal CLint at 1 μM is < 10 µL/min/mg. In addition, the solubility at 2 h in data set [3] is ≥ 100 µM.

For the compound `COc1cc(Cn2c(=O)ccc3c(C)nc(-c4c(OC)ncnc4C4CC4)nc32)cc(F)c1-c1nc(C(F)(F)F)cn1C1CC1` [Compound I-163], in data set [1], the GI50 was < 0.01 µM. The microsomal CLint at 1 μM in data set [2] was < 10 µL/min/mg. In data set [3], this compound had a solubility at 2 h of 10 to 100 µM (≈ 6.22 to 62.2 µg/mL).

Take `COc1ncnc(C2CC2)c1-c1nc(C)c2cc(-c3ncnn3C)c(=O)n(Cc3ccc(-c4nc(C(F)(F)F)cn4C4CC4)cc3)c2n1` [Compound I-167, 8-({4-[1-Cyclopropyl-4-(Trifluoromethyl)Imidazol-2-Yl]Phenyl}Methyl)-2-(4-Cyclopropyl-6-Methoxypyrimidin-5-Yl)-4-Methyl-6-(2-Methyl-1,2,4-Triazol-3-Yl)Pyrido[2,3-d]Pyrimidin-7-One]: the GI50 in data set [1] was 0.01 to 0.1 µM. For the same compound, the microsomal CLint at 1 μM in data set [2] was < 10 µL/min/mg. The compound also yielded a solubility at 2 h in data set [3] of 10 to 100 µM (≈ 6.55 to 65.5 µg/mL).

Regarding `COc1ncnc(C2CC2)c1-c1ncc2cc(-c3ncnn3C)c(=O)n(Cc3ccc(-c4nc(C(F)(F)F)cn4C(C)C)cc3)c2n1` [Compound I-168, 2-(4-Cyclopropyl-6-Methoxypyrimidin-5-Yl)-8-({4-[1-Isopropyl-4-(Trifluoromethyl)Imidazol-2-Yl]Phenyl}Methyl)-6-(2-Methyl-1,2,4-Triazol-3-Yl)Pyrido[2,3-d]Pyrimidin-7-One], the GI50 in data set [1] was in the range of 0.01 to 0.1 µM. Also, the intrinsic clearance (microsomal CLint) at 1 μM in data set [2] was < 10 µL/min/mg. In data set [3], this compound showed a solubility at 2 h of 10 to 100 µM (≈ 6.43 to 64.3 µg/mL).
